For this assay, the target named is Acrosin (Homo sapiens, UniProt P10323). Briefly: Inhibition of acrosin activity in human spermatozoa using N-alpha-benzoyl-DL-arginine para-nitroanilide-HCI as a substrate after 3 hrs by spectrophotometric analysis.
Acrosin, sequence (P10323 20-42 limits assumed): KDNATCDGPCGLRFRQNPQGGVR
Acrosin, sequence (P10323 43-343 limits assumed): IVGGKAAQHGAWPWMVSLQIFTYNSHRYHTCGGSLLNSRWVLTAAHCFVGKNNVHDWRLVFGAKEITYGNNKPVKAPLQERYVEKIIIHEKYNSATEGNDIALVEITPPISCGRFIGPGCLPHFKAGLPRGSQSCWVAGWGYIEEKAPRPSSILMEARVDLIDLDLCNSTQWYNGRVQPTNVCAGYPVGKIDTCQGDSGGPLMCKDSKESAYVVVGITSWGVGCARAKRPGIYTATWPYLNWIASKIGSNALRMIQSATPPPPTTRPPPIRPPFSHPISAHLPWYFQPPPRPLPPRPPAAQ
For `COc1ccc(C(=O)Nc2ccc(S(=O)(=O)N=C(N)N)cc2)cc1`, the IC50 – broadly, the concentration that gives 50% inhibition – was 2.21 mM. As to `Cc1ccc(C(=O)Nc2ccc(S(=O)(=O)N=C(N)N)cc2)cc1`, the IC50 worked out at 2.06 mM. The result for `NC(N)=NS(=O)(=O)c1ccc(NC(=O)c2ccccc2Cl)cc1` reads 6.3 mM; that for `NC(N)=NS(=O)(=O)c1ccc(NC(=O)c2cccc(Cl)c2)cc1`, 7 mM; that for `NC(N)=NS(=O)(=O)c1ccc(NC(=O)c2ccc(Cl)cc2Cl)cc1`, 5.63 mM. The result for `NC(N)=NS(=O)(=O)c1ccc(NC(=O)c2c(Cl)cccc2Cl)cc1` reads 5.96 mM.

`NC(N)=NS(=O)(=O)c1ccc(NC(=O)c2ccc(Cl)c(Cl)c2)cc1` displayed an IC50 of 3.8 mM. For `NC(N)=NS(=O)(=O)c1ccc(NC(=O)c2ccccc2Br)cc1` the value was 7.63 mM; for `NC(N)=NS(=O)(=O)c1ccc(NC(=O)c2ccc(F)cc2)cc1`, 7.11 mM. For `NC(N)=NS(=O)(=O)c1ccc(NC(=O)c2c(F)cccc2F)cc1` the value was 7.18 mM; for `NC(N)=NS(=O)(=O)c1ccc(NC(=O)c2ccc(CCl)cc2)cc1`, 3.84 mM. The result for `Cc1cc(C)c(C(=O)Nc2ccc(S(=O)(=O)N=C(N)N)cc2)c(C)c1` reads 2.45 mM. `NC(N)=NS(=O)(=O)c1ccc(NC(=O)c2cccc(C(F)(F)F)c2)cc1` displayed an IC50 of 7.05 mM. For `NC(N)=NS(=O)(=O)c1ccc(NC(=O)c2cc([N+](=O)[O-])cc([N+](=O)[O-])c2)cc1` the value was 2.5 mM. Take `CCc1ccc(C(=O)Nc2ccc(S(=O)(=O)N=C(N)N)cc2)cc1`: the IC50 is 0.21 mM.

`CCOc1ccc(C(=O)Nc2ccc(S(=O)(=O)N=C(N)N)cc2)cc1` returned an IC50 of 0.13 mM. For `CCC(=O)Nc1ccc(S(=O)(=O)N=C(N)N)cc1` the value was 9 mM; for `CCCC(=O)Nc1ccc(S(=O)(=O)N=C(N)N)cc1`, 9.58 mM; for `CCCCC(=O)Nc1ccc(S(=O)(=O)N=C(N)N)cc1`, 1.58 mM. `NC(N)=NS(=O)(=O)c1ccc(NC(=O)CN2CCCCC2)cc1` returned an IC50 of 7.41 mM. For `CC1CCCCN1CC(=O)Nc1ccc(S(=O)(=O)N=C(N)N)cc1` (stereo unspecified) the value was 9.9 mM; for `CC1CCN(CC(=O)Nc2ccc(S(=O)(=O)N=C(N)N)cc2)CC1`, 4.98 mM. For `COC(=O)C1CCN(CC(=O)Nc2ccc(S(=O)(=O)N=C(N)N)cc2)CC1` the value was 9.3 mM.

With `CCOC(=O)C1CCN(CC(=O)Nc2ccc(S(=O)(=O)N=C(N)N)cc2)CC1`, the IC50 came to 2.99 mM.

The compound `CCCOC(=O)C1CCN(CC(=O)Nc2ccc(S(=O)(=O)N=C(N)N)cc2)CC1` registered an IC50 of 3.31 mM.

`CC(C)OC(=O)C1CCN(CC(=O)Nc2ccc(S(=O)(=O)N=C(N)N)cc2)CC1` returned an IC50 of 2.35 mM.

For the compound `CCCCOC(=O)C1CCN(CC(=O)Nc2ccc(S(=O)(=O)N=C(N)N)cc2)CC1`, the concentration for half-maximal inhibition (IC50) was 9.5 mM.

The compound `CC(C)CCOC(=O)C1CCN(CC(=O)Nc2ccc(S(=O)(=O)N=C(N)N)cc2)CC1` returned an IC50 of 2.51 mM. Turning to `NC(N)=NS(=O)(=O)c1ccc(NC(=O)COc2ccccc2)cc1`, the IC50 was found to be 2.3 mM. The result for `Cc1ccccc1OCC(=O)Nc1ccc(S(=O)(=O)N=C(N)N)cc1` reads 9.3 mM; that for `Cc1cccc(OCC(=O)Nc2ccc(S(=O)(=O)N=C(N)N)cc2)c1`, 8.92 mM; that for `Cc1ccc(OCC(=O)Nc2ccc(S(=O)(=O)N=C(N)N)cc2)cc1`, 8.98 mM.

In turn, `NC(N)=NS(=O)(=O)c1ccc(NC(=O)COc2ccc(Cl)cc2)cc1` showed an IC50 of 9.35 mM. This IC50 and that of the compound before are within 1.5-fold of each other.

`COc1ccc(OCC(=O)Nc2ccc(S(=O)(=O)N=C(N)N)cc2)cc1` had an IC50 of 9.84 mM. For `NC(N)=NS(=O)(=O)c1ccc(NC(=O)COc2ccc([N+](=O)[O-])cc2)cc1` the value was 4.2 mM; for `COC(=O)c1ccc(OC(=O)c2ccc(NC(=N)N)cc2)cc1.CS(=O)(=O)O`, 0.027 mM.

These data come from ChEMBL document CHEMBL1909542, “Synthesis and acrosin inhibitory activity of substituted 4-amino-N-(diaminomethylene) benzenesulfonamide derivatives” (Bioorg Med Chem Lett, 2011).
